Measured values published in ChEMBL document CHEMBL6096723, “Discovery of novel capsaicin analogs as TRPV1 inhibitors for the treatment of idiopathic pulmonary fibrosis” (Eur J Med Chem, 2025).
Activity calls are given as the source filed them. No cut-off for these calls is given here.

Experiments:
NIH3T3 [1] = assay: Anti-fibrotic activity in mouse NIH3T3 cells assessed as inhibition of TGFbeta-induced total collagen production at 10 uM measured after 48 hrs by Sirius Red Collagen Detection Kit relative to control; type: functional
[2] = Cytotoxicity against mouse NIH3T3 cells assessed as survival rate at 10 uM measured after 24 hrs by CCK-8 assay relative to control; type: toxicity, cell-based; details: read-out: Survival
NIH3T3 [3] = assay: Inhibition of TGFbeta1-induced proliferation of mouse NIH3T3 cells assessed as colony formation at 10 uM measured after 7 to 14 days by Crystal violet staining based assay; type: functional, cell-based; details: time 7-14 day
NIH3T3 [4] = assay: Anti-fibrotic activity in mouse NIH3T3 cells assessed as inhibition of TGFbeta-induced total collagen production measured after 48 hrs by Sirius Red Collagen Detection Kit relative to control; type: functional, cell-based; details: NIH3T3, 48 h
L929 = assay: Anti-migratory activity in mouse L929 cells assessed as inhibition of TGFbeta1-induced migration at 10 uM measured after 24 hrs by Wound healing assay; type: functional, cell-based

Row | SMILES | inhibition at 10 µM (NIH3T3 [1]) [%] | viability at 24 h, 10 µM [2] [%] | inhibition (NIH3T3 [3]) | IC50 (NIH3T3 [4]) [nM] | Activity (L929)
1 | CCCCCCCCC(=O)NCc1ccc(O)c(O)c1 | 61.4 | 90.5 |  |  | 
2 | CCCCCCCCCC(=O)NCc1ccc(O)c(O)c1 | 64.8 | 121 |  |  | 
3 | OC(/C=C/C=C/c1ccccc1)CCc1ccccc1 (configuration not stated) | 61.9 | 119 |  |  | 
4 | CC(C)CC(=O)NCc1ccc(O)c(O)c1 | 10.4 | 115 |  |  | 
5 | COc1ccc(CCC(=O)CC/C=C/c2ccccc2)cc1 | 57.7 | 38.8 |  |  | 
6 | COC(=O)c1ccc2c(c1)NC(=O)/C2=C(\Nc1ccc(N(C)C(=O)CN2CCN(C)CC2)cc1)c1ccccc1 [NINTEDANIB] | 89.5 | 20.5 | Active | 270 | 
7 | OC(CCCCc1ccccc1)CCc1ccccc1 (configuration not stated) | 72.2 | 74.1 |  | 1570 | Active
8 | O=C(CC/C=C/c1ccccc1)CCc1ccc(O)cc1 | 40.1 | -3.97 |  |  | 
9 | O=C(CC/C=C/c1ccccc1)CCc1ccccc1 | 55.3 | -1.47 |  |  | 
10 | CCCCCC(=O)NCc1ccc(OC)c(OC)c1 | -9.02 | 85.8 |  |  | 
11 | CCCCCC(=O)NCc1ccc(OC(C)=O)c(OC(C)=O)c1 | 50.9 | 138 |  |  | 
12 | CC(=O)Oc1ccc(CNC(=O)CC(C)C)cc1OC(C)=O | 11.2 | 124 |  |  | 
13 | CCCCCCCCC(=O)NCc1ccc(OC(C)=O)c(OC(C)=O)c1 | 66 | 137 |  |  | 
14 | COc1ccc(CCC(/C=C/C=C/c2ccccc2)OC)cc1O (configuration not stated) | 63 | 93.2 |  |  | 
15 | CCCCCCCCCC(=O)NCc1ccc(OC(C)=O)c(OC(C)=O)c1 | 68.9 | 141 | Active | 2630 | 
16 | O=C(CCCCc1ccccc1)CCc1ccc(O)cc1 | 49.7 | 117 |  |  | 
17 | CCCCCCCC(=O)NCc1ccc(O)c(O)c1 | 58.1 | 133 |  |  | 
18 | COc1cc(/C=C/C(O)CC(=O)/C=C/c2ccc(O)cc2)ccc1O (configuration not stated) | -41.6 | 88.9 |  |  | 
19 | CCCCCCCC(=O)NCc1ccc(OC(C)=O)c(OC(C)=O)c1 | 56.3 | 151 |  |  | 
20 | COc1ccc(CNC(=O)CCCCc2ccccc2)cc1OC | -9.64 | 91.2 |  |  | 
21 | CC(=O)Oc1ccc(CCC(CCCCc2ccccc2)OC(C)=O)cc1OC(C)=O (configuration not stated) | 51.9 | 111 |  |  | 
22 | CCCCCCCC(=O)NCc1ccc(OC)c(OC)c1 | 11.6 | 103 |  |  | 
23 | COc1ccc(OC)c(CCCCC(=O)CCc2ccc(OC)c(O)c2)c1 | 59.2 | 96.8 |  |  | 
24 | CC(=O)Oc1ccc(/C=C/C(=O)Cc2ccccc2)cc1OC(C)=O | 18.8 | 149 |  |  | 
25 | CCCCCCCCC(=O)NCc1ccc(O)c(OC)c1 [NONIVAMIDE] | 58.7 | 92 |  |  | 

Row | SMILES | inhibition at 10 µM (NIH3T3 [1]) [%] | viability at 24 h, 10 µM [2] [%] | inhibition (NIH3T3 [3]) | IC50 (NIH3T3 [4]) [nM] | Activity (L929)
26 | CCCCCCCCCC(=O)NCc1ccc(OC)c(OC)c1 | -5.71 | 101 |  |  | 
27 | COc1ccc(CCC(=O)CCCCc2cccc(O)c2)cc1 | 67.6 | 91.1 | Active | 2080 | 
28 | Oc1ccc(CCC(O)CC/C=C/c2ccccc2)cc1O (configuration not stated) | 56.6 | 131 |  |  | 
29 | COc1cc(CNC(=O)CCCCCCC(C)C)ccc1O [DIHYDROCAPSAICIN] | 50 | 92.3 |  | 20400 | 
30 | O=C(/C=C/c1ccc(O)cc1)CC(O)/C=C/c1ccc(O)cc1 (configuration not stated) | 72.8 | 101 |  | 4760 | Active
31 | COc1cc(CCC(O)CC/C=C/c2ccccc2)ccc1O (configuration not stated) | 43.7 | 103 |  |  | 
32 | COc1ccc(CNC(=O)CC(C)C)cc1OC | -41.7 | 88.2 |  |  | 
33 | Oc1ccc(/C=C/CCC(O)CCc2ccc(O)cc2)cc1 (configuration not stated) | 60.9 | 132 |  |  | 
34 | COc1ccc(CCC(=O)CCCCc2cccc(O)c2)cc1O | 60.6 | 95.7 |  |  | 
35 | COc1cc(CNC(=O)CCCC/C=C/C(C)C)ccc1O [CAPSAICIN] | 35.3 | 98.6 |  |  | 
36 | CCCCC(=O)NCc1ccc(O)c(O)c1 | 54.2 | 123 |  |  | 
37 | O=C(CCCCc1ccccc1)NCc1ccc(O)c(O)c1 | 65.2 | 118 |  |  | 
38 | CCCCC(=O)NCc1ccc(OC(C)=O)c(OC(C)=O)c1 | 53 | 131 |  |  | 
39 | C(=C\C=C\c1ccccc1)/C=C/Cc1ccccc1 | 57.5 | -2.34 |  |  | 
40 | CC(=O)Oc1ccc(CNC(=O)CCCCc2ccccc2)cc1OC(C)=O | 70.6 | 129 | Active | 1430 | 
41 | CCCCCCCCC(=O)NCc1ccc(OC(C)=O)c(OC)c1 | 56.4 | 129 |  |  | 
42 | COC(/C=C/C=C/c1ccccc1)CCc1ccc(O)cc1 (configuration not stated) | 57.7 | 111 |  |  | 
43 | COc1cc(/C=C/C(=O)CC(O)/C=C/c2ccc(O)c(OC)c2)ccc1O (configuration not stated) | 19.4 | 85 |  |  | 
44 | CCCCC(=O)NCc1ccc(OC)c(OC)c1 | -2.64 | 86 |  |  | 
45 | OC(CCc1ccccc1)CC(O)CCc1ccccc1 (configuration not stated) | 46.9 | 101 |  |  | 
46 | O=C(CCc1ccccc1)CC(O)CCc1ccccc1 (configuration not stated) | 62.9 | 111 |  |  | 
47 | CCCCCC(=O)NCc1ccc(O)c(O)c1 | 60.2 | 118 |  |  | 
48 | COc1ccc(CCCCC(O)CCc2ccc(OC)c(O)c2)c(OC)c1 (configuration not stated) | 68.5 | 114 |  | 21900 | 
49 | O=C(CCCCc1ccccc1)CCc1ccccc1 | 58.8 | 94.1 |  |  | 
